Tests used:
Type in all cases: biochemical
cpCKII = biological target: T1, cpCKII (Arabidopsis thaliana, UniProt O64816); assay: […] phosphorylation of recombinant AtTKL1, SDS/PAGE autoradiogram; details: labelled compound; 10 mM MgCl2; pH 7.6; 22 °C; with calcium or EGTA
T1 construct: gene CKA4; mature form lacking N-terminal 85 residues; N-terminal GST fusion (pGEX4-T1) kept; E. coli
T1 sequence (O64816 86-432): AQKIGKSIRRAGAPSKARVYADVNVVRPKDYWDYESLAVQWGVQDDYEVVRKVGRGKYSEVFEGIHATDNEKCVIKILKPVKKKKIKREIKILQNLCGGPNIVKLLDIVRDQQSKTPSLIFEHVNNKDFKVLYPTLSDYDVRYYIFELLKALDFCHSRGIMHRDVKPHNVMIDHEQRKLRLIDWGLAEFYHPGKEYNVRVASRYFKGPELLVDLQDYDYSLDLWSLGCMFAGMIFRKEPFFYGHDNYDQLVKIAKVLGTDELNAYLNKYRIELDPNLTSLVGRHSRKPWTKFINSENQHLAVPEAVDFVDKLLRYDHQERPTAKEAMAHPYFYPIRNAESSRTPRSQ

AtTKL1 [1] = biological target: T2, AtTKL1 (Arabidopsis thaliana, UniProt Q8RWV0); assay: coupled NAD reduction assay with E. coli E4PDH, A340; details: 2 mM G3P; 0.1 mM TPP; 15 mM MgCl2; 5 mM CaCl2; pH 7.2 and 8.0; 30 °C
T2 construct: gene TKL-1; mature form lacking N-terminal 67 residues (chloroplast-targeting peptide); N-terminal intein tag cleaved; E. coli ER2566; 73 kDa; homodimer
T2 sequence (Q8RWV0 68-741): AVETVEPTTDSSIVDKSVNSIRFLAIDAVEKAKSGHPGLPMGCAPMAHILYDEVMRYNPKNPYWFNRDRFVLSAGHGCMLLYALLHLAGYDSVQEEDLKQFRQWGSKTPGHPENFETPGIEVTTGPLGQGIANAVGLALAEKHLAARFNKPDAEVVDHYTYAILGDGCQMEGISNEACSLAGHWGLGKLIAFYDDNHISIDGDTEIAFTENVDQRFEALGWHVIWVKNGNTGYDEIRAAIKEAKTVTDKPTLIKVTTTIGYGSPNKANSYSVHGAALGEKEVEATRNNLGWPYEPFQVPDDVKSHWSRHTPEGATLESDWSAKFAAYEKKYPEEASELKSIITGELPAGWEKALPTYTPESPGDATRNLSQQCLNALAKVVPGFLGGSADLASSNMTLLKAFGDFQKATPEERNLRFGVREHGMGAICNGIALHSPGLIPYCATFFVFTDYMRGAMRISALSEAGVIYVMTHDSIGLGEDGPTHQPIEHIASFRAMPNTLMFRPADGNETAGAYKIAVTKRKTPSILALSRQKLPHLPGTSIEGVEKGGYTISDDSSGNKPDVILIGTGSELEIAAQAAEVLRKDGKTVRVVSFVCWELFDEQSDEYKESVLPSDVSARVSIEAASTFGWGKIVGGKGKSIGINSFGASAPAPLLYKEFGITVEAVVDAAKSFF

AtTKL1 [2] = biological target: T3, AtTKL1 (Arabidopsis thaliana, UniProt Q8RWV0, S428D); assay: as above; details: phosphomimetic mutant; 2 mM G3P; 0.1 mM TPP; 15 mM MgCl2; 5 mM CaCl2; pH 7.2 and 8.0; 30 °C
T3 construct: gene TKL-1; mature form lacking N-terminal 67 residues (chloroplast-targeting peptide); N-terminal intein tag cleaved; E. coli ER2566; 73 kDa; homodimer
T3 sequence (Q8RWV0 68-741 S428D): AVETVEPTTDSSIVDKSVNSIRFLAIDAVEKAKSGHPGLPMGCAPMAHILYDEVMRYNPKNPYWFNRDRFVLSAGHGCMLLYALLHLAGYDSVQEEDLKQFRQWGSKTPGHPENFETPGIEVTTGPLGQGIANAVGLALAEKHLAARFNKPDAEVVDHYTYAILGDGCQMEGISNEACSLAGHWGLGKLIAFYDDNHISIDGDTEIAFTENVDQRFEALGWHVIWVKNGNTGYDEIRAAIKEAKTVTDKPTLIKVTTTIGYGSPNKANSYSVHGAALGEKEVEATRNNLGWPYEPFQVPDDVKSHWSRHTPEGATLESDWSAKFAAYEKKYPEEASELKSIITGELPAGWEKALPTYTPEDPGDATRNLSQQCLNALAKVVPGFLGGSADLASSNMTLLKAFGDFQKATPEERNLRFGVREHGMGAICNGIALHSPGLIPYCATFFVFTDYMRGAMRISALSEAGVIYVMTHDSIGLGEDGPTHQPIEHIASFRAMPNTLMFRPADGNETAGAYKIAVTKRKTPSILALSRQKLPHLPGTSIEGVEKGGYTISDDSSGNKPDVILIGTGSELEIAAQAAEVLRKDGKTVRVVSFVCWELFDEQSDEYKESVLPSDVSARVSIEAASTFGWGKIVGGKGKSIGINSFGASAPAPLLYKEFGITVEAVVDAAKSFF

Nc1ncnc2c1ncn2[C@@H]1O[C@H](COP(=O)(O)OP(=O)(O)OP(=O)(O)O)[C@@H](O)[C@H]1O [ATP]
32P phosphorylation of recombinant AtTKL1, SDS/PAGE autoradiogram (cpCKII): cpCKII was able to phosphorylate recombinant AtTKL1 (Figure 2F, arrowheads)

O=P(O)(O)OC[C@H]1OC(O)(CO)[C@@H](O)[C@@H]1O (stereo partly shown) [F6P]
KmF6P (AtTKL1 [1]): the wild-type enzyme had higher KmF6P and VmaxF6P values
KmF6P (AtTKL1 [2]): higher KmF6P and VmaxF6P values compared with the phosphomimetic mutant

Nc1nc2c(ncn2[C@@H]2O[C@H](COP(=O)(O)OP(=O)(O)OP(=O)(O)O)[C@@H](O)[C@H]2O)c(=O)[nH]1 [GTP]
32P phosphorylation of recombinant AtTKL1, SDS/PAGE autoradiogram (cpCKII): recombinant cpCKII was able to utilize GTP

Reference: publication PMC3966265, “Phosphorylation of Arabidopsis transketolase at Ser^428 provides a potential paradigm for the metabolic control of chloroplast carbon metabolism” (Biochemical Journal, 2014)
